# Like-named read-outs stand apart in the source and are kept apart here.
# Assays:
# MRSA = assay: MIC by tube dilution and Kull synergy index against MRSA; assay type: cell-based, Staphylococcus aureus; settings: for MIC: Staphylococcus aureus
# Description: (§1) MIC testing and synergistic effects studies. The microorganisms were clinically obtained isolates. Staphylococcus aureus is a clinically significant member of the gram-positive group of bacterial pathogens. It gives rise to serious infections, and can produce bacteremia, endocarditis, and meningitis. Methicillin-resistant strains of Staphylococcus aureus (MRSA) were chosen for evaluation because they are a significant medical problem, particularly in view of the fact that methicillin is a drug of choice for treatment of S. aureus infection in the common penicillin-resistant strains. Escherichia coli was also chosen for evaluation. E. coli is a gram-negative pathogenic enterobacteriaceae, and is commonly used as a model organism for bacteria in general. The E. coli strain O157:H7, one of hundreds of strains of the bacterium E. coli, causes illness in humans.
# (§2) All individual components are present in the combination at a starting point of 10,000 μg/mL, or 1% unless otherwise noted in the parenthesis in the attached tables. Combinations are serially diluted to obtain the MIC. […]
# (§3) Abbreviations in Tables 2 and 3 are as follows. MIC is the Minimum Inhibitory Concentration. MRSA is Methicillin-resistant Staphylococcus Aureus. E. coli is Escherichia coli. […] Pluronic® F127 is Pluronic® F127 microemulsion.
# (§4) The Minimum Inhibitory Concentrations (MIC) were determined using tube dilution sensitivities. […] The cultures were incubated overnight at 37° C. and MICs were recorded. The MIC was determined as the lowest concentration of a combination which prevented visible microorganism growth (e.g., turbidity). A culture growth control without compound and several culture sensitive reference agents were used as positive controls. The assays were performed in triplicate.
# (§5) Dilutions of the compositions were added to bacterial growth media (tryptic soy broth) to result in a set of tubes with a concentration range of 0.001 mg/L-1000 mg/L of the combination.
# (§6) QB is the ppm (MIC) of active substance B alone which produces an endpoint. QC is the ppm (MIC) of active substance C alone which produces an endpoint. Qa is the ppm (MIC) of active substance A, in the combination, which produces an endpoint. Qb is the ppm (MIC) of active substance B, in the combination, which produces an endpoint. Qc is the ppm (MIC) of active substance C, in the combination, which produces an endpoint. And so on for Qn components.
# (§7) If the SI of Qa/QA+Qb/QB+Qc/QC is less than one, synergy is indicated. A value greater than one indicates antagonism. A value equal to one indicates additivity.
# E. coli = assay: microbe, parasite or virus in culture; assay type: cell-based, Escherichia coli; settings: for MIC: Escherichia coli
# Description: as §1, §2, §3, §4, §5, §6, §7
# resistant E. coli = assay: Additional synergy testing: combination plus 0.5X MIC of an antibiotic; assay type: cell-based, Escherichia coli
# [1] = Table 2, MIC of Component 3 alone against MRSA
# [2] = Table 3, MIC of Component 1 alone against E. coli, read-out: 1-MIC-
# [3] = Table 3, MIC of Component 2 alone against E. coli, read-out: 2-MIC-
# [4] = Table 2, MIC of Component 2 alone against MRSA
# [5] = Table 2, MIC of Component 2 alone against MRSA, read-out: 2-MIC-
# [6] = Table 2, MIC of Component 1 alone against MRSA, read-out: 1-MIC-
compound,measurement,setting,value
2-hydroxypropyl-α-cyclodextrin,3-MIC-,MRSA; [1],1001 ppm
same,3-MIC-MRSA,"MRSA; Table 5, Component 3 alone",1001 ppm
Oc1cccc2cccnc12 [8-hydroxyquinoline],MIC,"MRSA; MRSA, read-out: 3-MIC-",1.56 µg/mL
same,MIC,"MRSA; MRSA, read-out: 3-MIC-MRSA",1.56 µg/mL
same,MIC,E. coli; read-out: 3-MIC-,50 µg/mL
"C=CCN=C=S [Allyl isothiocyanate, allyl isothiocyanate]",MIC,"MRSA; MRSA, read-out: 1-MIC-",1000 µg/mL
same,MIC,"MRSA; MRSA, read-out: 2-MIC-",1000 µg/mL
same,MIC,"MRSA; MRSA, read-out: 2-MIC-MRSA",1000 µg/mL
same,MIC,E. coli; [2],1000 µg/mL
same,MIC,E. coli; [3],1000 µg/mL
"CC(O)(P(=O)(O)O)P(=O)(O)O [HEDP, 1-hydroxyethylidene-1,1-diphosphonic acid]",3-MIC-,MRSA; [1],1001 ppm
same,3-MIC-MRSA,"MRSA; Table 5, Component 3 alone",1001 ppm
same,3-MIC-,"E. coli; Table 3, MIC of Component 3 alone against E. coli",1001 ppm
"C=C(C)[C@H]1CC=C(C)CC1 [Limonene, limonene]",1-MIC-,"MRSA; Table 2, MIC of Component 1 alone against MRSA",1001 ppm
same,2-MIC-,MRSA; [4],1001 ppm
same,1-MIC-MRSA,"MRSA; Table 5, Comp. 1 alone",1001 ppm
same,1-MIC-,"E. coli; Table 3, MIC of Component 1 alone against E. coli",1000 ppm
same,2-MIC-,"E. coli; Table 3, MIC of Component 2 alone against E. coli",1001 ppm
"CN(C)c1ccc2nc3ccc(=[N+](C)C)cc-3sc2c1 [Methylene blue, methylene blue]",MIC,MRSA; [5],25 µg/mL
same,MIC,E. coli; [2],1000 µg/mL
same,MIC,E. coli; [3],1000 µg/mL
"CCCCCCCCCCCCN(CCCN)CCCN [N,N-bis(3-aminopropyl)-dodecylamine, N,N-bis-(3-aminopropyl)dodecylamine]",MIC,MRSA; [6],12.5 µg/mL
same,MIC,MRSA; [5],12.5 µg/mL
same,MIC,E. coli; [2],25 µg/mL
same,MIC,E. coli; [3],25 µg/mL
"C=CC(C)(O)CCC=C(C)CCC=C(C)C (stereo not shown) [Nerolidol, nerolidol]",MIC,"MRSA; MRSA, Table 5, Comp. 1 alone, read-out: 1-MIC-MRSA",500 µg/mL
same,MIC,MRSA; [6],500 µg/mL
same,MIC,E. coli; [2],1000 µg/mL
"CCCCCCCCO[C@@H]1O[C@H](CO)[C@@H](O)[C@H](O)[C@H]1O [Octyl glucoside, octyl glucoside]",2-MIC-,MRSA; [4],1001 ppm
"O=C(/C=C/C=C/c1ccc2c(c1)OCO2)N1CCCCC1 [Piperine, piperine]",MIC,"MRSA; MRSA, read-out: 1-MIC-",1000 µg/mL
same,MIC,"MRSA; MRSA, read-out: 2-MIC-",1000 µg/mL
same,MIC,"MRSA; MRSA, read-out: 2-MIC-MRSA",1000 µg/mL
same,MIC,E. coli; [2],1000 µg/mL
same,MIC,E. coli; [3],1000 µg/mL
"[O-][n+]1ccccc1S [Pyrithione, pyrithione]",MIC,"MRSA; MRSA, read-out: 2-MIC-",0.79 µg/mL
same,MIC,"MRSA; MRSA, read-out: 2-MIC-MRSA",0.79 µg/mL
same,MIC,E. coli; read-out: 2-MIC-,6.25 µg/mL
"O=C(O)c1ccccc1O [Salicylic acid, salicylic acid]",MIC,"MRSA; MRSA, Table 5, Component 3 alone, read-out: 3-MIC-MRSA",1000 µg/mL
same,MIC,"MRSA; Table 2, MIC of Component 3 alone against MRSA, read-out: 3-MIC-",1000 µg/mL
same,MIC,"E. coli; Table 3, MIC of Component 3 alone against E. coli, read-out: 3-MIC-",1000 µg/mL
"O=C(O)CN(CCN(CC(=O)O)CC(=O)O)CC(=O)O.[K] [Sample K2EDTA, potassium ethylenediaminetetraacetic acid]",MIC,"MRSA; MRSA, read-out: 3-MIC-",500 µg/mL
same,MIC,"MRSA; MRSA, read-out: 3-MIC-MRSA",500 µg/mL
same,MIC,E. coli; read-out: 3-MIC-,1000 µg/mL
"OCC1CCCO1 (stereo not shown) [THFA, tetrahydrofurfuryl alcohol]",MIC,"MRSA; MRSA, read-out: Other-MIC-",500 µg/mL
"CC(=O)c1c(O)c(C)c(O)c2c1OC1=CC(=O)C(C(C)=O)C(=O)C12C (stereo not shown) [Usnic Acid, usnic acid]",MIC,"MRSA; MRSA, read-out: 1-MIC-",6.25 µg/mL
same,MIC,"MRSA; MRSA, read-out: 2-MIC-",6.25 µg/mL
same,MIC,"MRSA; MRSA, read-out: 2-MIC-MRSA",6.25 µg/mL
same,MIC,E. coli; [2],1000 µg/mL
same,MIC,E. coli; [3],1000 µg/mL
"C[C@H]1c2cccc(O)c2C(O)=C2C(=O)[C@]3(O)C(O)=C(C(N)=O)C(=O)[C@@H](N(C)C)[C@@H]3[C@@H](O)[C@@H]21 [doxy, doxycycline]",MIC Ab alone (B) QB,resistant E. coli,50 µg/mL
"CN(C)[C@@H]1C(=O)C(C(N)=O)=C(O)[C@@]2(O)C(=O)C3=C(O)c4c(O)cccc4[C@@](C)(O)[C@H]3C[C@@H]12 [tetra, tetracycline]",MIC Ab alone (B) QB,resistant E. coli,400 µg/mL
gentamicin,MIC Ab alone (B) QB,resistant E. coli,100 µg/mL

# From US20120121723A1, “Antimicrobial Compositions” (priority 2005, published 2012)
